Laboratory results: article PMC4778904, “The Curcumin Analog C-150, Influencing NF-κB, UPR and Akt/Notch Pathways Has Potent Anticancer Activity In Vitro and In Vivo” (PLoS ONE, 2016)

Target: T1, PKC-alpha (Homo sapiens, UniProt P17252)
T1 construct: gene PRKCA
Assay: IMAP-FP kinase activity assay (Proteros selectivity panel), single concentration […], ATP at Km app; […] inhibition
Assay type: biochemical

inhibition at 1 µM: 32.8%
Structure (SMILES): C=CC(=O)NC(c1ccccc1)C(C(=O)/C=C/c1cccc(O)c1)C(=O)/C=C/c1cccc(O)c1 (stereo not shown) [compound 3, N-((E)-5-(3-hydroxyphenyl)-2-((E)-3-(3-hydroxyphenyl)acryloyl)-3-oxo-1-phenylpent-4-en-1-yl)acrylamide]
